Tested on: PDX TNBC Model CTG-0017
Test: Antitumor effects in PDX mouse model of TNBC
Type: in vivo
Details: PDX model CTG-0017; A 10 mg/kg SC BID 3 days on/4 off ×4; B 7.5 mg/kg PO BID×28; versus vehicle
Method in brief: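 Tumor fragments were grown subcutaneously in immunocompromised female mice and dosed once volumes were approximately 150-250 mm^3. Treatment was either agent alone or both: subcutaneous CHK1 inhibitor 10 mg/kg twice daily on days 1/2/3 weekly for 4 weeks, oral PI3K/mTOR inhibitor 7.5 mg/kg twice daily for 28 days.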

Row | Structure (SMILES) | % Rsp. (% ΔT/ΔC or % Regression)
1 | COc1cccc(OCCCN)c1-c1cc(Nc2cnc(C#N)cn2)n[nH]1.CS(=O)(=O)O [Compound A, 5-(5-(2-(3-aminopropoxy)-6-methoxyphenyl)-1H-pyrazol-3-ylamino)pyrazine-2-carbonitrile methanesulfonate hydrate] | 52.3%
2 | CO[C@@H](C)Cn1c(=O)n(C)c2cnc3ccc(-c4cncc(C(C)(C)O)c4)cc3c21 [Compound B, 8-[5-(1-hydroxy-1-methylethyl)pyridin-3-yl]-1-[(2S)-2-methoxypropyl]-3-methyl-1,3-dihydro-2H-imidazo[4,5-c]quinolin-2-one] | 28.1%

From patent US20180228795A1, “COMBINATION THERAPY FOR CANCER” (Eli Lilly and Company, priority 2015, published 2018)
